Measured values reported in patent US6710056B2, “Amidinophenylpyruvic acid derivatives” (Ajinomoto Co., Inc., priority 1999, dated 2004).
Structures can show the parent of a compound that is named as a salt.

Assays:
[1] = target: T1, human thrombin (Homo sapiens, UniProt P00734); experiment: Determination of antagonistic activity to human thrombin; type: biochemical; conditions: substrate S-2238, pH 8.4, initial velocity, read-out: Antagonistic activity to thrombin (pIC50) (converted)
T1 construct: solution of human thrombin (SIGMA Co. Ltd.); purchased SIGMA Co. Ltd
Description: (2) Determination of Antagonistic Activity to Human Thrombin:
130 μl of 100 mM tris hydrochloride buffer adjusted at pH 8.4 was added to 10 μl of an aqueous solution of a sample compound having antagonistic activity to human thrombin. Then 10 μl of a solution of human thrombin (SIGMA Co. Ltd.) adjusted to 2 units/ml with pH 8.4 tris hydrochloride buffer was added to the obtained mixture, and they were incubated at room temperature for 10 minutes. 50 μl of a 0.4 mM solution of D-phenylalanyl-L-pipecolyl-L-arginyl-P-nitroanilide dihydrochloride (S-2238, Daiichi Pure Chemicals Co., Ltd.) in pH 8.4 tris hydrochloride buffer was added to the obtained mixture. The absorbance was determined and the initial reaction velocity was calculated. A control was prepared by using 10 μl of tris hydrochloride buffer adjusted to pH 8.4 in place of the solution of the compound to be tested. The absorbance was determined with MICROPLATE READER Model 3550-UV (BIO RAD) at a wavelength of 405 nm at intervals of 15 seconds for 6 minutes. The negative logarithm (pIC50) of the concentration of the sample compound for the 50% inhibition of the activity (initial velocity) of thrombin was determined, and it was employed as the index of the antagonistic activity to thrombin.

[2] = target: T2, activated human blood coagulation factor VII (Homo sapiens, UniProt P08709); experiment: Determination of antagonistic activity to activated human blood coagulation factor VII; type: biochemical; conditions: FVIIa mixed with tissue factor, substrate S-2288, pH 7.4, initial velocity; read-out: Antagonistic activity to activated blood coagulation factor VII (pIC50 ) (converted)
T2 construct: purchased Enzyme Research Laboratories Ltd. (FVIIa); American Diagnostica Laboratories Ltd. (tissue factor)
Description: Determination of antagonistic activity to activated human blood coagulation factor VII:
100 nM solution of activated human blood coagulation factor VII (Enzyme Research Laboratories Ltd.) in pH 7.4 tris hydrochloride buffer solution was mixed with 100 nM solution of a tissue factor (American Diagnostica Laboratories Ltd.) in pH 7.4 tris hydrochloride buffer solution in equal amounts, and the obtained mixture was left to stand at room temperature for 30 minutes. 50 μl of 50 mM tris hydrochloride buffer solution having a pH adjusted to 7.4 was added to 5 μl of an aqueous solution of a compound to be tested. Then 10 μl of the previously prepared mixture of 50 nM of each of the solutions of activated human blood coagulation factor VII and tissue factor was added to the obtained mixture, and they were incubated at room temperature for 10 minutes. Then 25 μl of 3.2 mM solution of D-isoleucyl-L-prolyl-L-arginyl-P-nitroanilide hydrochloride (S-2288, Daiichi Pure Chemicals Co., Ltd.) in pH 7.4 tris hydrochloride buffer was added to the obtained mixture. The absorbance was determined and the initial reaction velocity was calculated. A control was prepared by using 5 μl of tris hydrochloride buffer adjusted to pH 7.4 in place of the solution of the compound to be tested. The absorbance was determined with MICROPLATE READER Model 3550-UV (BIO RAD) at a wavelength of 405 nm at intervals of […]. The negative logarithm (pIC50) of the concentration of the sample compound for the 50% inhibition of the activity (initial velocity) of the activated blood coagulation factor VII was determined, and it was employed as the index of the antagonistic activity to the activated blood coagulation factor VII.

T2 sequence (P08709 213-466 limits assumed): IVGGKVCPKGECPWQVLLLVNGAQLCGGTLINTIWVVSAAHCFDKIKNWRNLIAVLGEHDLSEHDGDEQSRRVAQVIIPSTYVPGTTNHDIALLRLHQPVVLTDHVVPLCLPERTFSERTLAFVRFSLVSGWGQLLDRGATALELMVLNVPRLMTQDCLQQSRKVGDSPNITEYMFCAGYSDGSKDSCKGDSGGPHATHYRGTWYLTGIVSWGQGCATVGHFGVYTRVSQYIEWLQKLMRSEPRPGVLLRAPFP
T2 sequence (P08709 61-212 limits assumed): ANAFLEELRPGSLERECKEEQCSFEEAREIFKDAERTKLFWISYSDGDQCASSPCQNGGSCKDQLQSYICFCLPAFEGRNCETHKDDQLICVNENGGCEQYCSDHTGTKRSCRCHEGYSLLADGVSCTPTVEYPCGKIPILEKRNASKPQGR
T2 sequence (P13726 33-295 partner): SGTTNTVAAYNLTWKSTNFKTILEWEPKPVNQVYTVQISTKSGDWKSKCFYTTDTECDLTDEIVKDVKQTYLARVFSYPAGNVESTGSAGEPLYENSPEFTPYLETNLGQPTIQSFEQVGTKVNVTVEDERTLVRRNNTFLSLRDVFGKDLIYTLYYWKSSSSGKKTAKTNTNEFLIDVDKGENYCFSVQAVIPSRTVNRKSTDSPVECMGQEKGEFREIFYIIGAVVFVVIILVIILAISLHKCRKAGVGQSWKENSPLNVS

| SMILES | IC50 [1] | IC50 [2] |
| --- | --- | --- |
| N=C(N)c1ccc(CC(=O)C(=O)O)c(OC[C@@H](CCC(=O)O)NC(=O)c2ccc3nc(N)sc3c2)c1 [Compound of Ex. 28, (4R)-4-[(2-Aminobenzothiazole-6-carbonyl)amino]-5-[5-amidino-2-(2-carboxy-2-oxoethyl)phenoxy]pentanoic acid trifluoroacetate] | > 100000 nM | 5.01 nM |
| Cc1nc2ccc(C(=O)N[C@H](CCC(=O)O)COc3cc(C(=N)N)ccc3CC(=O)C(=O)O)cc2[nH]1 [Compound of Ex. 4, (4R)-4-[(2-Methylbenzimidazole-5-carbonyl)amino]-5-[5-amidino-2-(2-carboxy-2-oxoethyl)phenoxy]pentanoic acid bistrifluoroacetate] | > 100000 nM | 200 nM |
| COc1ccc(-c2ccccc2)cc1C(=O)N[C@H](CCC(=O)O)COc1cc(C(=N)N)ccc1CC(=O)C(=O)O [Compound of Ex. 27, (4R)-4-(2-Methoxy-5-phenylbenzoylamino)-5-[5-amidino-2-(2-carboxy-2-oxoethyl)phenoxy]pentanoic acid trifluoroacetate] |  | 50.1 nM |
| N=C(N)c1ccc(-c2cccc(C(=O)N[C@H](CCC(=O)O)COc3cc(C(=N)N)ccc3CC(=O)C(=O)O)c2)cc1 [Compound of Ex. 13, (4R)-4-[[3-(4-Amidinophenyl)benzoyl]amino]-5-[5-amidino-2-(2-carboxy-2-oxoethyl)phenoxy]pentanoic acid bistrifluoroacetate] | 7940 nM | 100 nM |
| N=C(N)c1ccc(CC(=O)C(=O)O)c(OCCNC(=O)c2ccc3nc(N)ccc3c2)c1 [Compound of Ex. 2, 3-[4-Amidino-2-[2-(2-aminoquinoline-6-carbonyl)aminoethoxy]phenyl]-2-oxopropionic acid bistrifluoroacetate] | 31600 nM | 316 nM |
| N=C(N)c1ccc(CC(=O)C(=O)O)c(OC[C@@H](CCC(=O)O)NC(=O)c2ccc3nc(N)ccc3c2)c1 [Compound of Ex. 1, (4R)-4-[(2-Aminoquinoline-6-carbonyl)amino]-5-[5-amidino-2-(2-carboxy-2-oxoethyl)phenoxy]pentanoic acid bistrifluoroacetate] | > 100000 nM | 126 nM |

Next, values leading:

| IC50 [1] | IC50 [2] | SMILES |
| --- | --- | --- |
| 39800 nM | 20 nM | N=C(N)c1ccc(CC(=O)C(=O)O)c(OCCNC(=O)c2ccc3nc(N)sc3c2)c1 [Compound of Ex. 39, 3-[4-Amidino-2-[2-(2-amino-benzothiazole-6-carbonyl)aminoethoxy]phenyl]-2-oxo-propionic acid trifluoroacetate] |
| > 100000 nM | 251 nM | N=C(N)Nc1ccc(C(=O)N[C@H](CCC(=O)O)COc2cc(C(=N)N)ccc2CC(=O)C(=O)O)cc1 [Compound of Ex. 23, (4R)-4-[(4-Guanidinobenzoyl)amino]-5-[5-amidino-2-(2-carboxy-2-oxoethyl)phenoxy]pentanoic acid bistrifluoroacetate] |
|  | 100 nM | N=C(N)c1ccc(CC(=O)C(=O)O)c(OC[C@@H](CCC(=O)O)NC(=O)c2cc3c(cc2Br)CCO3)c1 [Compound of Ex. 45, (4R)-4-[(5-Bromo-2,3-dihydrobenzo[b]furan-6-carbonyl)amino]-5-[5-amidino-2-(2-carboxy-2-oxoethyl)phenoxy]pentanoic acid trifluoroacetate] |
